Assays:
[1] = Sweat malodor coverage, jar test ranked by sensory panel; set-up: species or system human; details: compound 10% in solvent; for Sweat Malodor, mean rank of malodor coverage: 8 oz jar, 1 hour equilibration, 15-18 panelists, scale 1 (No Coverage), 3 (Moderate Coverage), 5 (Excellent Coverage)
Experimental: (§1) Establishment of Malodor Models: It is known that the perspirative malodors of human body, particularly sweat, are associated with the production of several unpleasant smelling organic acids, particularly isovaleric acid (“IVA”). The commercial sample of this malodorous material (commercially available at Sigma-Aldrich Inc.) was thus used as a model compound to assess the effectiveness of sweat malodor counteractants. The mold/mildew malodor model was prepared based on applicant's proprietary formulations for assessing the effectiveness of mold/mildew malodor counteractants.
(§2) Preparation of Test Samples: Two aluminum dishes were placed in an 8 oz glass jar. A malodor material was pipetted into one aluminum dish, and a compound of the present invention diluted in a solvent (10%) or a solvent alone control was pipetted into the other aluminum dish. The jar was then capped and the samples were allowed to equilibrate for one hour before the testing.
(§3) Testing Procedure: Test samples were presented in a blind and random order to 15-18 internal panelists (consisting of men/women with an age range of 25 to 55). However, different odor samples were arranged in an alternative order (for example, sweat, mold/mildew, sweat, mold/mildew, and etc.).
(§4) The panelists were instructed to take the steps of i) sniff jars containing only the malodor materials for familiarization prior to the testing; ii) uncap a jar; iii) place their noses at a distance of about 3-4 inches above the opening; iv) take short sniffs for 3 seconds; and v) provide a rank of the malodor coverage using an intensity scale of 1 to 5, where 1 represents “No Coverage”, 3 represents “Moderate Coverage”, and 5 represents “Excellent Coverage”. The means for each sample was then calculated.

[2] = Mold/mildew malodor coverage, jar test ranked by sensory panel; set-up: species or system human; details: compound 10% in solvent; for Mold/Mildew Malodor, mean rank of malodor coverage: 8 oz jar, 1 hour equilibration, 15-18 panelists, scale 1 (No Coverage), 3 (Moderate Coverage), 5 (Excellent Coverage)
Experimental: as §1, §2, §3, §4

Vapor pressure = format: physicochemical

Row | Vapor Pressure (Vapor pressure) [µg/L] | Structure (SMILES) | counteracting sweat malodor (in words) [1] | Sweat Malodor, mean rank of malodor coverage [1] | counteracting mold/mildew malodor (in words) [2] | Mold/Mildew Malodor, mean rank of malodor coverage [2]
1 | 2186 | CC12CCC(C1)C1(C)OC1C2 (centres unmarked) [Structure 1, 2,6-dimethyl-3-oxa-tricyclo[4.2.1.0*2,4*]nonane] | effective | 3.59 | effective | 3.87
2 | 4305 | CC1C(=O)CC2(C)CCC1C2 (centres unmarked) [Structure 2, 1,4-dimethyl-bicyclo[3.2.1]octan-3-one] | effective | 3.57 | effective | 3.63
3 | 1045 | CC1CC2(C)C3CCC(C)(C3)CC2O1 (centres unmarked) [Structure 4, 2,4,8-trimethyl-5-oxa-tricyclo [6.2.1.0*2,6*]undecane] | effective | 3.11 | effective | 2.79
4 | 1281 | CC1C2CCC(C)(C2)CC12OCCO2 (centres unmarked) [Structure 5, 1,4-dimethyl-bicyclo[3.2.1]octan-3-dioxolane] | effective | 2.92 | effective | 2.39

Reference: patent publication US8399522B2, “3.2.1-bicyclo-octane compounds” (International Flavors & Fragrances Inc, priority 2010, dated 2013)
